Literature values in US10702520B1, “Pharmaceutical compositions of posaconazole” (SLAYBACK PHARMA LLC, priority 2019, dated 2020).
Like-named read-outs stand apart in the source and are kept apart here.

Row | Structure (SMILES) | solubility (in 0.1 N Hydrochloric acid) | solubility (in water) | solubility (at gastric pH) | solubility (pH about 6.4 or higher)
1 | CCC(C)n1ncn(-c2ccc(N3CCN(c4ccc(OC[C@H]5CO[C@](Cn6cncn6)(c6ccc(Cl)cc6Cl)O5)cc4)CC3)cc2)c1=O (mixture of isomers) [Itraconazole] | 6 µg/mL | less than 1 μg/mL |  | 
2 | CC[C@@H]([C@H](C)O)n1ncn(-c2ccc(N3CCN(c4ccc(OC[C@@H]5CO[C@@](Cn6cncn6)(c6ccc(F)cc6F)C5)cc4)CC3)cc2)c1=O [Posaconazole free base, 4-[4-[4-[4-[[(3R,5R)-5-(2,4-difluorophenyl)tetrahydro-5-(1H-1,2,4-triazol-1-ylmethyl)-3-furanyl]methoxy]phenyl]-1-piperazinyl]phenyl]-2-[(1S,2S)-1-ethyl-2-hydroxypropyl]-2,4-dihydro-3H-1,2,4-triazol-3-one] |  |  | approximately 0.8 mg/mL | less than 1 μg/mL
